Data as given in PubChem BioAssay AID248 (DTP/NCI, 2004).
Where “and” joins values, the source holds several entries; their conditions need not be identical. Equal entries are not always repeated. Toxic doses and inconclusive results are not listed. Rule as the data show it: active = T/C of 150% or more; inactive = T/C below 125%.

Tested on: L1210 leukemia ip in BDF1 mice, survival T/C
Assay: NCI In Vivo Anticancer Drug Screen. Data for tumor model L1210 Leukemia (intraperitoneal) in B6D2F1 (BDF1) mice
Conditions: endpoint: mean survival time, higher = longer survival
How it was run: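 Value reflects the ratio of survival in compound-treated mice to survival in vehicle-treated controls, with both groups carrying the same transplanted tumor.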

Measured: T/C

c1ccc2c(c1)ccc1c2ccc2cccc[n+]21
inactive: dose: 1.25 mg/kg/injection, schedule: Q01DX001 (ip), vehicle: saline 97 % of control | dose: 2.5 mg/kg/injection, schedule: Q01DX001 (ip), vehicle: saline 97 % of control | dose: 5.0 mg/kg/injection, schedule: Q01DX001 (ip), vehicle: saline 103 % of control | dose: 5.0 mg/kg/injection, schedule: Q01DX015 (ip), vehicle: saline 103 % of control | dose: 10.0 mg/kg/injection, schedule: Q01DX001 (ip), vehicle: saline 107 % of control

O=Cc1ccc(OS(=O)(=O)c2ccc([N+](=O)[O-])cc2)cc1
inactive: dose: 100.0 mg/kg/injection, schedule: Q01DX009 (ip), vehicle: Klucel (hydroxypropylcellulose) (HPC) 97 % of control | dose: 200.0 mg/kg/injection, schedule: Q01DX009 (ip), vehicle: Klucel (hydroxypropylcellulose) (HPC) 98 % of control | dose: 400.0 mg/kg/injection, schedule: Q01DX009 (ip), vehicle: Klucel (hydroxypropylcellulose) (HPC) 90 % of control

CC(C)(C)NC(=O)Oc1ccccc1C(=O)Nc1ccccc1
inactive: dose: 50.0 mg/kg/injection, schedule: Q01DX009 (ip), vehicle: saline with Tween-80 97 % of control and 103 % of control | dose: 100.0 mg/kg/injection, schedule: Q04DX002 (ip), vehicle: saline with Tween-80 101 % of control and 103 % of control | dose: 200.0 mg/kg/injection, schedule: Q04DX002 (ip), vehicle: saline with Tween-80 95 % of control and 98 % of control | dose: 400.0 mg/kg/injection, schedule: Q04DX002 (ip), vehicle: saline with Tween-80 92 % of control

O=C(CC(=O)c1ccccc1)Nc1ccc([N+](=O)[O-])cn1
inactive: dose: 50.0 mg/kg/injection, schedule: Q04DX003 (ip), vehicle: Klucel (hydroxypropylcellulose) (HPC) 91 % of control | dose: 100.0 mg/kg/injection, schedule: Q01DX001 (ip), vehicle: Klucel (hydroxypropylcellulose) (HPC) 103 % of control | dose: 200.0 mg/kg/injection, schedule: Q01DX001 (ip), vehicle: Klucel (hydroxypropylcellulose) (HPC) 105 % of control | dose: 200.0 mg/kg/injection, schedule: Q04DX003 (ip), vehicle: Klucel (hydroxypropylcellulose) (HPC) 93 % of control | dose: 400.0 mg/kg/injection, schedule: Q01DX001 (ip), vehicle: Klucel (hydroxypropylcellulose) (HPC) 98 % of control

CC/C(=C(\CC)c1ccc(OCC(=O)N2CC2)cc1)c1ccc(OCC(=O)N2CC2)cc1
inactive: dose: 2.5 mg/kg/injection, schedule: Q04DX002 (ip), vehicle: saline 101 % of control | dose: 5.0 mg/kg/injection, schedule: Q04DX002 (ip), vehicle: saline 101 % of control | dose: 10.0 mg/kg/injection, schedule: Q04DX002 (ip), vehicle: saline 105 % of control

[Cl][Pt][Cl].c1ccc([PH+](c2ccccc2)C2CCCCC2)cc1.c1ccc([PH+](c2ccccc2)C2CCCCC2)cc1
inactive: dose: 6.25 mg/kg/injection, schedule: Q04DX003 (ip), vehicle: water 96 % of control | dose: 12.5 mg/kg/injection, schedule: Q04DX003 (ip), vehicle: water 98 % of control | dose: 25.0 mg/kg/injection, schedule: Q04DX003 (ip), vehicle: water 96 % of control | dose: 50.0 mg/kg/injection, schedule: Q04DX003 (ip), vehicle: water 98 % of control

CCCCOC(=Nc1ccccc1)N(c1ccccc1)c1ccccc1
inactive: dose: 222.0 mg/kg/injection, schedule: Q01DX Z (ip), vehicle: methylcellulose (MC) 88 % of control | dose: 333.0 mg/kg/injection, schedule: Q01DX Z (ip), vehicle: methylcellulose (MC) 94 % of control | dose: 500.0 mg/kg/injection, schedule: Q01DX Z (ip), vehicle: methylcellulose (MC) 98 % of control

N=C(N)N=Nc1ccc(NN=C(N)N)c2ccccc12
inactive: dose: 15.0 mg/kg/injection, schedule: Q01DX Z (ip), vehicle: saline 94 % of control | dose: 15.0 mg/kg/injection, schedule: Q01DX Z (oral), vehicle: other 103 % of control | dose: 30.0 mg/kg/injection, schedule: Q01DX Z (ip), vehicle: saline 102 % of control | dose: 30.0 mg/kg/injection, schedule: Q01DX Z (oral), vehicle: other 98 % of control | dose: 60.0 mg/kg/injection, schedule: Q01DX Z (oral), vehicle: other 98 % of control | dose: 120.0 mg/kg/injection, schedule: Q01DX Z (oral), vehicle: other 95 % of control
